Read-outs that look alike come from different tables or passages of the source.
Key:
Assay type in all cases: cell-based
[1] = system: rat embryo fibroblast derived cell line (REF52); assay: Force response of ring samples to physiological activators without stretching; conditions: each drug added to a single tissue ring
Procedure: Ring samples made using a rat embryo fibroblast derived cell line (REF52) were prepared as described previously herein. The length of the tissue was maintained at a constant level during the test. Each of the drugs indicated in FIG. 15 was added to a single tissue ring.

[2] = system: chicken embryo cardiac fibroblasts (CECFs); assay: Contractile response of ring samples to agonists, CECFs
From the text: (§1) Profiles of contractile response to different agonists applied to ring samples were made using chicken embryo cardiac fibroblasts (CECFs) and rat adult cardiac fibroblasts (RACFs) and are shown in FIGS. 16(a)-(d) and FIGS. 16(e)-(h), respectively.
(§2) Time dependent force profiles after addition of FBS (20% v/v) were different depending on the pretreatment by different agonists.

[3] = system: rat adult cardiac fibroblasts (RACFs); assay: Contractile response of ring samples to agonists, RACFs
From the text: as §1, §2

[4] = system: bio-artificial tissues (extracellular matrix, cellular contractility); assay: Tissue indentation device: mechanical changes in ECM, EA and pre-tension (Example 17)
Procedure: To verify the sensitivity for detecting changes in the mechanical properties of extracellular matrix (ECM) by the device, different concentrations of collagenase (1, 10, 100 U/ml) were administered to the different sets of bio-artificial tissues at time indicated by the arrow (b) in FIG. 33. All the bio-artificial tissues were treated with Endothelin-1 (50 nM, arrow a) to make sure the cells were responding to a contractile stimuli.
Experimental groups are separated into control (no treatment, filled circle), and treatments with 1, 10, 100 U/ml collagenase indicated by open circle, open triangle, and open square, respectively. After addition of 1 U/ml collagenase, the pre-tension, i.e. cellular contractility, was maintained compared to that of untreated control. […] While the collagenase digested the collagen matrix and affected ECM stiffness, the cell-ECM connection was slowly disrupted. Therefore, the cellular contractility was decreased especially with higher concentrations of collagenase. Nevertheless, the dataset indicated the measurement system sensitively detected incremental changes in ECM mechanics depending on the level of collagen degradation by the increasing concentrations of collagenase. At the 20 min time point (10 min after collagenase treatment), the apparent reduction of EA, but not pre-tension, indicates the EA was more sensitive to treatments affecting the extracellular matrix.

[5] = system: smooth muscle cells (SMCs) isolated from rat aorta; assay: Tissue indentation device: acute time-dependent cell force (Example 18); conditions: measured at 0, 1, 4 and 7 min; 50 nM Norepinephrine, 100 nM Endothelin, 10% FBS (FIG. 34)
Procedure: To test the system's ability to measure acute time-dependent response after treating the ETs, vasoconstrictors, norepinephrine and endothelin-1 and general constricting agent, fetal bovine serum (FBS) were added to bio-artificial tissues with smooth muscle cells (SMCs) isolated from rat aorta (10^6 SMCs per ml of bio-artificial tissue solution at bio-artificial tissue formation). The force generated by these bio-artificial tissues was measured at 0, 1, 4 and 7 min after adding the agents. […] The total acquisition time for 64 data points was 40 minutes.

[6] = system: chicken embryo fibroblasts (CEF's) tissue model; assay: Ring system: isometric force and dynamic stiffness of fibroblast populated matrices (FPM); conditions: for IC50: serial additions, sigmoidal dependence
Procedure: Chicken embryo fibroblasts (CEF's) isolated from 11-day chicken embryos (Spafas Inc., Preston, Conn.) were maintained in Dulbecco's modified Eagle's medium (DMEM) supplemented with 10% fetal calf serum (FCS), penicillin at 50 units/ml, and streptomycin at 50 microgram/milliliter. The CEF's used to make tissue models were passaged once or twice from primary cultures. Monomeric collagen solubilized in 0.02 M acetic acid (Upstate Biotechnology Inc., Lake Placid, N.Y.) was neutralized at 4° C. with 0.1 N NaOH and mixed with concentrated DMEM stock to yield a final normal DMEM concentration. The fibroblasts suspended by trypsin (FIG. 1a) were mixed with the collagen solution (FIG. 1b), the cell suspension was poured into Teflon casting wells (FIG. 1c), and the wells were incubated at 37° C. with 5% CO2 (FIG. 1d). The collagen polymerized within 15-30 min and fibroblasts were captured within the hydrated collagen gel. The collagen gel formed a ring (3 mm thick, 3 cm diameter) between the inner wall of the cylindrical well and the central mandrel. While in culture the cells compressed this ring, reducing its volume about 10-fold (thickness 200-300 μm). The ring could then be removed from the mandrel (FIG. 1e and FIG. 1f) and mounted on the measuring instrument (FIG. 1g) as described below.
Mechanical measurements were carried out using a ring system. After two days of incubation (serum starvation for the final 12-16 hours), the mandrel was removed from the casting well and the tissue model-ring was removed gently from the mandrel. As shown in FIG. 1 the tissue model-ring was looped over the triangular hook connected to an isometric force transducer (Model 52-9545, Harvard Apparatus, South Natick, Mass.) by a fine, flexible gold chain. The ring was also looped over a horizontal bar connected to a sliding element moveable vertically and linearly by a stepper motor (P/N 1-19-3400 24V DC 1.8° step size, Haward Industry, St. Louis, Mo.) controlled by a micro-stepping driver (IM483 Intelligent Motion Systems) to measure stress and dynamic modulus of the sample. The micro-stepping driver was controlled by a personal computer with software which enabled the stepper motor to achieve smooth motion. An analog-to-digital signal converter (CIO-DAS1602/16, Computer Boards, Inc., Mansfield, Mass.) attached to the computer translated the voltage signal from the isometric force transducer to a digital signal for recording on a data recorder. The stepper motor controlled the stretching of the tissue. Force exerted by or on the tissue was transmitted to the force transducer by the gold chain.
The tissue sample was submerged in 50 ml Hepes-buffered DMEM (pH 7.4) in a thermo-regulated organ bath (Harvard Apparatus, South Natick, Mass.) maintained at 37° C. The two horizontal bars over which the ring was looped were initially set to hold the ring at its original contour length (corresponding to the circumference of the mandrel).
Typically, for stiffness measurements, the tissue model is subjected to a sequence of stretch cycles. In each cycle the tissue model is slowly stretched from 0 to 20% over 30 minutes and the tissue model is then returned at the same rate to its original length by actuation of the stepper motor. The resulting increase in contractile force during the first stretch is substantially larger than the contractile force in subsequent stretches (FIG. 2a). For each stretch after the first stretch there is a further small decrease in maximum contractile force, but the decrease becomes negligible after sufficient pre-stretching. The tissue models produced contractile force in response to the activation of fibroblasts by serum. This contractile force was abolished by disrupting the actin cytoskeleton with cytochalasin D (2 μM) (FIG. 2b).
The amplitude of the force response divided by the stretching amplitude corresponded to the dynamic stiffness of the sample subjected to a preselected sinusoidal length change. […]

With lysophosphatidic acid [LPA] the “force response of tissue ring at constant length” value (from here on “force response of tissue ring”) [1] was “produce different forces”.

“angiotensin II (DRVYIHPF; Angiotensin-2; UniProt P01019 25-32, looked up) [agonist]” was tested, and the “contractile response of ring” value [2] was “did not response” and the “contractile response of ring” value [3] was “responded”.

In the case of `CC[C@H](C)[C@H](NC(=O)[C@H](CC(=O)O)NC(=O)[C@H](CC(C)C)NC(=O)[C@H](Cc1c[nH]cn1)NC(=O)[C@@H]1CSSC[C@H](N)C(=O)N[C@@H](CO)C(=O)N[C@H]2CSSC[C@H](NC(=O)[C@H](CCC(=O)O)NC(=O)[C@H](CCCCN)NC(=O)[C@H](CC(=O)O)NC(=O)[C@H](CCSC)NC(=O)[C@H](CC(C)C)NC(=O)[C@H](CO)NC(=O)[C@H](CO)NC2=O)C(=O)N[C@@H](C(C)C)C(=O)N[C@@H](Cc2ccc(O)cc2)C(=O)N[C@@H](Cc2ccccc2)C(=O)N1)C(=O)N[C@H](C(=O)N[C@@H](Cc1c[nH]c2ccccc12)C(=O)O)[C@@H](C)CC` [endothelin, endothelin-1], the “force response of tissue ring” value [1] is reported as “produce different forces”, the “contractile response of ring” value [2] is reported as “contracted rings” and the “contractile response of ring” value [3] is reported as “contracted rings”. For the same molecule, the “pre-tension (cellular contractility)” value ([4]; Endothelin-1 50 nM) was “increased immediately”, the “cell force (active force) after adding the agent” value [5] was “increased over time” and the “time at which cell force reached its maximum value” [5] was 7 min.

`NC(=O)CC[C@@H]1NC(=O)[C@H](Cc2ccccc2)NC(=O)[C@H](Cc2ccc(O)cc2)NC(=O)[C@@H](N)CSSC[C@@H](C(=O)N2CCC[C@H]2C(=O)N[C@@H](CCCN=C(N)N)C(=O)NCC(N)=O)NC(=O)[C@H](CC(N)=O)NC1=O` [vasopressin] was tested, and the “force response of tissue ring” value [1] was “produce different forces”, the “contractile response of ring” value [2] was “did not response” and the “contractile response of ring” value [3] was “responded”.

In the case of Thrombin, the “force response of tissue ring” value [1] is reported as “produce different forces”.

For “EGF: epidermal growth factor (NSDSECPLSHDGYCLHDGVCMYIEALDKYACNCVVGYIGERCQYRDLKWWELR; Epidermal growth factor; UniProt P01133 971-1023, looked up)”, the “contractile response of ring” value [2] was “did not respond to any dose”.

With `NC[C@H](O)c1ccc(O)c(O)c1` [Norepinephrine, norepinephrine] the “force response of tissue ring” value [1] was “reduced the initial base line force”, the “cell force (active force) after adding the agent” value [5] was “increased over time” and the “time at which cell force reached its maximum value” [5] was 7 min.

In the case of `CNC[C@H](O)c1cccc(O)c1` [phenylephrine], the “force response of tissue ring” value [1] is reported as “reduced the initial base line force”.

In the case of `C/C1=C/C(=O)O[C@@H]2C[C@@H](CC[C@H](C)/C=C\CC1)O[C@@](O)([C@@H]1CSC(=O)N1)C2` [LA-B, Latrunculin B], the “concentration at which force and dynamic stiffness reached their minimum values” [6] is reported as ~600 nM, the “concentration range over which tension and stiffness decrease” value [6] is reported as “single decade” and the “lowest concentration at which force and dynamic stiffness were significantly diminished” value [6] is reported as 40 nM. For the same molecule, the “effect on viscosity of the tissues (phase angle δ)” value ([6]; data not shown) was “relatively minor effect”, the IC50 ([6]; read-out: estimated half maximum concentration for reducing the force) was 0.053 µM and the IC50 ([6]; read-out: estimated half maximum concentration for reducing the stiffness) was 0.068 µM.

In the case of collagenase, the “pre-tension (cellular contractility) compared to untreated control” value ([4]; 1 U/ml collagenase, after Endothelin-1 50 nM) is reported as “maintained”, the “EA (tissue stiffness)” value ([4]; 1 U/ml collagenase, about 10 min after treatment) is reported as “began to be reduced” and the “pre-tension (cellular contractility)” value ([4]; 10 U/ml collagenase, for ~10 min) is reported as “didn't reduce the pre-tension significantly”. For the same molecule, the “drop of EA (tissue stiffness)” value ([4]; 100 U/ml collagenase, ~10 min after treatment) was “already significant”.
